Reference: patent publication US20050261298A1, “Methods of treating conditions associated with an Edg-7 receptor” (priority 2002, published 2005)

Legend:
[1] = target: T1, Edg-5 (Homo sapiens, UniProt O95136); assay: Calcium mobilization assay (FLIPR), inhibition of S1P-stimulated calcium increase; format: cell-based; conditions: HTC cells expressing Edg-5
T1 construct: expressed in transfected cells; host or cells: HTC rat hepatoma cells

[2] = target: T2, Edg-6 (Homo sapiens, UniProt O95977); assay: as above; format: cell-based; conditions: HTC cells expressing Edg-6
T2 construct: expressed in transfected cells; host or cells: HTC rat hepatoma cells
T2 sequence (O95977 1-384): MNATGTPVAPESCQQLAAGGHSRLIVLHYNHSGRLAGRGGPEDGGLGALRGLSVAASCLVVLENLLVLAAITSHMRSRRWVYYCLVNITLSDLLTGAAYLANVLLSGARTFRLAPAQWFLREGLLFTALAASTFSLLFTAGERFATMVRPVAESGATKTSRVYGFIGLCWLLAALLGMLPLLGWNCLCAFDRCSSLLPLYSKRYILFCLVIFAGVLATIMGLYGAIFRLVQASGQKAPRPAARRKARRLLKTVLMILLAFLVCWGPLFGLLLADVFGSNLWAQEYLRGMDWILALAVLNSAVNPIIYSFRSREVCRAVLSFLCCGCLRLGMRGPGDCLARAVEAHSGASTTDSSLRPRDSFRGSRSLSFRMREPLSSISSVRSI

[3] = target: T3, Edg-4 (Homo sapiens, UniProt Q9HBW0); assay: Calcium mobilization assay (FLIPR), inhibition of LPA-stimulated calcium increase; format: cell-based; conditions: HTC cells expressing Edg-4
Target sequence in this assay (Q9HBW0 1-344 limits assumed): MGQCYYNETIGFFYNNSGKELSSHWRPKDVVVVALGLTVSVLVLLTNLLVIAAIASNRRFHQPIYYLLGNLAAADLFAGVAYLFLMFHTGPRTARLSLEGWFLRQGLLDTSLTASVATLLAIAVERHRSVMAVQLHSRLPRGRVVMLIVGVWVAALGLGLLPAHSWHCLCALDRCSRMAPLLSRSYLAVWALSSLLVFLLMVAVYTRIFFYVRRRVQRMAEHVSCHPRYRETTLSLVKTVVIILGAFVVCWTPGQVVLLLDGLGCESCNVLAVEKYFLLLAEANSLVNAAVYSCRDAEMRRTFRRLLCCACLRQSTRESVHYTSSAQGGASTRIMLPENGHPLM

[4] = target: T4, Edg-3 (Homo sapiens, UniProt Q99500); assay: Calcium mobilization assay (FLIPR), inhibition of S1P-stimulated calcium increase; format: cell-based; conditions: HTC cells expressing Edg-3
T4 construct: expressed in transfected cells; host or cells: HTC rat hepatoma cells

[5] = target: T5, Edg-1 (Homo sapiens, UniProt P21453); assay: as above; format: cell-based; conditions: HTC cells expressing Edg-1
T5 construct: expressed in transfected cells; host or cells: HTC rat hepatoma cells

[6] = target: T6, Edg-8 (Homo sapiens, UniProt Q9H228); assay: Calcium mobilization assay (FLIPR), inhibition of S1P-stimulated calcium increase; format: cell-based; conditions: HTC cells expressing Edg-8
T6 construct: expressed in transfected cells; host or cells: HTC rat hepatoma cells

[7] = target: T7, Edg-2 (Homo sapiens, UniProt Q92633); assay: Calcium mobilization assay (FLIPR), inhibition of LPA-stimulated calcium increase; format: cell-based; conditions: HTC cells expressing Edg-2
T7 construct: expressed in transfected cells; host or cells: HTC rat hepatoma cells

[8] = target: T8, human Edg 7 receptors (Homo sapiens, UniProt Q9UBY5); assay: Calcium mobilization assay (FLIPR), inhibition of LPA response; format: cell-based; conditions: for IC50: HTC cells expressing human Edg 7; for Fold Selectivity: inhibitory selectivity for Edg-7 relative to other Edg receptors
T8 construct: expressed in transfected cells
T8 sequence (Q9UBY5 1-353): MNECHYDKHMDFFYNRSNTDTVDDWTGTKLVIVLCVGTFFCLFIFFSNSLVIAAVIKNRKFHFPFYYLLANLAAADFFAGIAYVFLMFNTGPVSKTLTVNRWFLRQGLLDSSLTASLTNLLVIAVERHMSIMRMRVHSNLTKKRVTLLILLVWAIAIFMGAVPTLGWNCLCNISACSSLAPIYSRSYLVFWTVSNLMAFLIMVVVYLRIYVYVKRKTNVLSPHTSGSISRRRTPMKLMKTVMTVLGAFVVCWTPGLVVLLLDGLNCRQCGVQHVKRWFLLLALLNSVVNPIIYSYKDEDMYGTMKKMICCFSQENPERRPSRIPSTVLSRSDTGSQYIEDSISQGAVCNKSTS
Experimental: (§1) The compounds were tested in HTC cells expressing human Edg 7 receptors. […] The compounds are tested in this recombinant system first, and subsequently tested in cell lines expressing Edg-7 (in addition to other Edg receptors).
The radioligand binding assays were conducted as described in Section 6.15 (Example 15).
(§2) LPA receptors such as Edg-7, couple to calcium effector pathways, and result in increases in intracellular calcium following receptor activation (An, 1998, J. Cell. Biochem Supp. 30-31:147-157). This biological response lends itself to a very efficient, high-throughput screen using a Fluorescence Imaging Plate Reader (FLIPR; Molecular Devices, Sunnyvale, Calif.). The FLIPR system is a real-time, cell-based assay system with continuous fluorescence detection using a cooled CCD camera. The FLIPR system was used to developing an Edg-7 receptor screen. Rat hepatoma cells stably expressing Edg-7 receptor were plated on 384-well plates and loaded with a calcium dye loading kit (Molecular Devices, Sunnyvale, Calif.) for 1 hour at room temperature. Cells were then placed on the FLIPR^384 (Molecular Devices, Sunnyvale, Calif.) and excited by an argon laser at […]. The data for the entire 384-well plate was updated every second. An integrated robotic pipettor allowed for simultaneous compound addition into each individual well in the plate

[9] = target: T2, Edg-6; assay: Calcium mobilization assay (FLIPR), agonist stimulation of calcium increase; format: cell-based; conditions: HTC cells expressing Edg-6; for stimulation of calcium increases, Edg-6: concentrations as high as 25 µM
[10] = target: T6, Edg-8; assay: as above; format: cell-based; conditions: HTC cells expressing Edg-8; for stimulation of calcium increases, Edg-8: concentrations as high as 25 µM
[11] = target: T7, Edg-2; assay: as above; format: cell-based; conditions: HTC cells expressing Edg-2; for stimulation of calcium increases, Edg-2: concentrations as high as 25 µM
[12] = target: T4, Edg-3; assay: as above; format: cell-based; conditions: HTC cells expressing Edg-3; for stimulation of calcium increases, Edg-3: concentrations as high as 25 µM
[13] = target: T5, Edg-1; assay: as above; format: cell-based; conditions: HTC cells expressing Edg-1; for stimulation of calcium increases, Edg-1: concentrations as high as 25 µM
[14] = target: T1, Edg-5; assay: as above; format: cell-based; conditions: HTC cells expressing Edg-5; for stimulation of calcium increases, Edg-5: concentrations as high as 25 µM
[15] = target: T8, human Edg 7 receptors; assay: as above; format: cell-based; conditions: for EC50 / specific activation of the Edg-7 receptor: HTC cells expressing human Edg 7; for Fold Selectivity: agonist selectivity for Edg-7 relative to other Edg receptors and null cells
Experimental: as §1, §2

[16] = target: T3, Edg-4; assay: as above; format: cell-based; conditions: HTC cells expressing Edg-4; for stimulation of calcium increases, Edg-4: concentrations as high as 25 µM
Target sequence in this assay (Q9HBW0 1-340 limits assumed): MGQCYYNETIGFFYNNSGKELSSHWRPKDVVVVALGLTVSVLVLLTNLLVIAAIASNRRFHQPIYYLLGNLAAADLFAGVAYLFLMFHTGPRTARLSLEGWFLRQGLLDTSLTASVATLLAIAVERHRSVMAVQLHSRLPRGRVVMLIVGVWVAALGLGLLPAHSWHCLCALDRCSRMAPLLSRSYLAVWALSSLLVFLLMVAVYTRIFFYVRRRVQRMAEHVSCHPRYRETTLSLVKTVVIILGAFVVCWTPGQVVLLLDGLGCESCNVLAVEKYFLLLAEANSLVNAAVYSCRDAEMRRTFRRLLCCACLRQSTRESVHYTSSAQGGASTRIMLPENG

[17] = system: untransfected HTC cells; assay: Calcium mobilization assay (FLIPR), agonist stimulation in null cells; format: cell-based, rat; conditions: for EC50: Rattus norvegicus; for stimulation of calcium increases, untransfected HTC cells: concentrations as high as 25 µM

T1 sequence (O95136 whole entry): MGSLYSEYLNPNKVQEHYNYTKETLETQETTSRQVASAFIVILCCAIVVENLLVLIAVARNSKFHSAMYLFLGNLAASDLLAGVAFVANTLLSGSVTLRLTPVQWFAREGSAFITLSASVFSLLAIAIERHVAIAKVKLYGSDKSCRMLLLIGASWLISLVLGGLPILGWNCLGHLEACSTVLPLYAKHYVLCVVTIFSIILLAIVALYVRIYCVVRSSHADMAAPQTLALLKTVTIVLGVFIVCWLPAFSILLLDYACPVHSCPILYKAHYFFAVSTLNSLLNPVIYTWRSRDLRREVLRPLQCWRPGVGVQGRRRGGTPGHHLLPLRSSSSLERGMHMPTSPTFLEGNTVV
T5 sequence (P21453 whole entry): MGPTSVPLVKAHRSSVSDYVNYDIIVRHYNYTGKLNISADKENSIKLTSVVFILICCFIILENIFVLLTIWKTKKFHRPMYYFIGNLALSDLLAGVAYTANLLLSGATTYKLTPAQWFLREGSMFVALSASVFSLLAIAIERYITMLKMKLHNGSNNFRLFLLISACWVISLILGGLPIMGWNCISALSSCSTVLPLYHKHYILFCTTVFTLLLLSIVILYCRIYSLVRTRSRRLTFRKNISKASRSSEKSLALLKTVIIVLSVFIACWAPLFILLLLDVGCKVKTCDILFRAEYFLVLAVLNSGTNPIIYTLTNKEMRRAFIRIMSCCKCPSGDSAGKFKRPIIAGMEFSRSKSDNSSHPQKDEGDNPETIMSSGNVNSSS
T4 sequence (Q99500 whole entry): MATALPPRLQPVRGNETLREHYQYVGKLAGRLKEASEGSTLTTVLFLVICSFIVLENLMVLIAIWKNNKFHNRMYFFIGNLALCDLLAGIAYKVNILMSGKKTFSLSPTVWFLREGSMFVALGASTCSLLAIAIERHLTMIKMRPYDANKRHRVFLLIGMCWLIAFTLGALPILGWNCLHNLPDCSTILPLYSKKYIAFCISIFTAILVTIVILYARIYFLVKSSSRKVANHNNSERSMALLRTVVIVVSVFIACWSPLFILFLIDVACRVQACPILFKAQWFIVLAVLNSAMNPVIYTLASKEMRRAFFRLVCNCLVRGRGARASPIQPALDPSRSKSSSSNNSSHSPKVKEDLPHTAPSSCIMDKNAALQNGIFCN
T6 sequence (Q9H228 whole entry): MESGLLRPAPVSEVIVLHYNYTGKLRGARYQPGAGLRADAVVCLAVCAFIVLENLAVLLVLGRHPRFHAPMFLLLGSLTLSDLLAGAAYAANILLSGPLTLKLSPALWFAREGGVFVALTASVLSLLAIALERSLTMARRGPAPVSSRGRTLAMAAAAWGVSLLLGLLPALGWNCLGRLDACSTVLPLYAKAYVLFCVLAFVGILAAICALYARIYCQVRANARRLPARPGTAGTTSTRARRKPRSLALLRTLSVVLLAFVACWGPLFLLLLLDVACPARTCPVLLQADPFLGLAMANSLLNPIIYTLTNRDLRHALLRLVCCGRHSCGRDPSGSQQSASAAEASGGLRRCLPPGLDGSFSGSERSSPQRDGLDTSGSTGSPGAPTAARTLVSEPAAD
T7 sequence (Q92633 whole entry): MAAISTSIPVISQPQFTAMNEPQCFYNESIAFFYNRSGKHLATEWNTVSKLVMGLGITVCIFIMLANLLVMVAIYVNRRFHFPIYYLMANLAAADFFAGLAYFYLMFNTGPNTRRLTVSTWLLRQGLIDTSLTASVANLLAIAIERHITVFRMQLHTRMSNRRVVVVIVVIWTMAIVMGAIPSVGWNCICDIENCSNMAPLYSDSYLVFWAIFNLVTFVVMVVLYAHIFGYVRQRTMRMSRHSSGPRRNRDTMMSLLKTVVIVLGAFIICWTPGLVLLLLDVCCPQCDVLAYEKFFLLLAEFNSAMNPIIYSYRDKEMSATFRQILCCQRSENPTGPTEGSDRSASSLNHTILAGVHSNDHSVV

melting point	EC50 [9] [µM]	stimulation of calcium increases, Edg-6 [9]	EC50 [10] [µM]	stimulation of calcium increases, Edg-8 [10]	EC50 [11] [µM]	stimulation of calcium increases, Edg-2 [11]	EC50 [12] [µM]	stimulation of calcium increases, Edg-3 [12]	EC50 [13] [µM]	stimulation of calcium increases, Edg-1 [13]	EC50 [14] [µM]	stimulation of calcium increases, Edg-5 [14]	EC50 [15] [nM]	specific activation of the Edg-7 receptor [15]	Fold Selectivity [15] [Fold]	EC50 [16] [µM]	stimulation of calcium increases, Edg-4 [16]	Structure (SMILES)	EC50 [17] [µM]	stimulation of calcium increases, untransfected HTC cells [17]	further results
272 °C (dec.)																		O=C(O)COc1ccc(Br)cc1/C=C1\S/C(=N\c2ccc(Cl)cc2)NC1=O (racemic) [Compound 107, 4-Bromo-2-[2-(4-chlorophenylimino)-4-oxothiazolidin-5-ylidenemethyl]phenoxyacetic acid]			IC50 [1]: > 20 µM; IC50 [2]: > 20 µM; IC50 [3]: > 20 µM; IC50 [4]: > 20 µM; IC50 [5]: > 20 µM; IC50 [6]: > 20 µM; IC50 [7]: > 20 µM; IC50 [8]: 7.73 µM; Fold Selectivity [8]: >2.6 Fold
320 °C (dec.)																		Cc1ccc(S(=O)(=O)N=C2NC(=O)/C(=C3/C(=O)Nc4ccccc43)S2)cc1 [Compound 105, 4-Methyl-N-[4-oxo-5-(2-oxo-1,2-dihydroindol-3-ylidene)thiazolidin-2-ylidene]-benzenesulfonamide]			IC50 [1]: > 20 µM; IC50 [2]: > 20 µM; IC50 [3]: > 20 µM; IC50 [4]: > 20 µM; IC50 [5]: > 20 µM; IC50 [6]: > 20 µM; IC50 [7]: > 20 µM; selective inhibition of the Edg-7 receptor (FIG. 1, FIG. 2) ([8]; HTC cells expressing Edg-7): exhibited selectivity; IC50 [8]: 0.52 µM; Fold Selectivity [8]: >38.5 Fold
103 to 105 °C	> 25	did not stimulate	> 25	did not stimulate	> 25	did not stimulate	> 25	did not stimulate	> 25	did not stimulate	> 25	did not stimulate	1610	specifically activate	>15.5	> 25	did not stimulate	Cc1cc(C)c2c(c1)Cc1ccccc1S2(=O)=O [Compound 133, 2,4-Dimethyl-9H-thioxanthene 10,10-dioxide]	> 25	did not stimulate	
134 to 135 °C	> 25	did not stimulate	> 25	did not stimulate	> 25	did not stimulate	> 25	did not stimulate	> 25	did not stimulate	> 25	did not stimulate	230	specifically activate	>109	> 25	did not stimulate	CCCCCC(CCCCC)=N/N=C1\NC(=O)C(CC(=O)O)S1 (stereo not drawn) [Compound 127, 4-Oxo-2-[(1-pentylhexylidene)hydrazono]thiazolidin-5-ylacetic acid]	> 25	did not stimulate	
284 to 285 °C	> 25	did not stimulate	> 25	did not stimulate	> 25	did not stimulate	> 25	did not stimulate	> 25	did not stimulate	> 25	did not stimulate	370	specifically activate	>68	> 25	did not stimulate	COc1ccc(-c2nc3ccc(C(=O)O)cc3nc2-c2ccc(OC)cc2)cc1 [Compound 129, 2,3-bis-(4-Methoxyphenyl) quinoxaline-6-carboxylic acid]	> 25	did not stimulate	
